Measured values taken from ChEMBL document CHEMBL4138123, “Design, synthesis and biological evaluation of novel pyrazolochalcones as potential modulators of PI3K/Akt/mTOR pathway and inducers of apoptosis in breast cancer cells” (Eur J Med Chem, 2017).

Experiments:
Format in all cases: functional
NCI-H522 = assay: Cytotoxicity against human NCI-H522 cells assessed as growth inhibition after 48 hrs by sulforhodamine B assay; details: NCI-H522, 48 h
NCI/ADR-RES = assay: Cytotoxicity against human NCI/ADR-RES cells assessed as growth inhibition after 48 hrs by sulforhodamine B assay
PC-3 [1] = assay: Cytotoxicity against human PC3 cells assessed as growth inhibition after 48 hrs by sulforhodamine B assay; details: PC-3, 48 h
Hs-578T = assay: Cytotoxicity against human Hs 578T cells assessed as growth inhibition after 48 hrs by sulforhodamine B assay
UACC-62 [2] = assay: Cytotoxicity against human UACC62 cells assessed as cell growth at 0.01 uM after 48 hrs by sulforhodamine B assay relative to control; details: UACC-62, 48 h, read-out: Activity
HCT-116 = assay: Cytotoxicity against human HCT116 cells assessed as cell growth at 0.01 uM after 48 hrs by sulforhodamine B assay relative to control; details: HCT-116, 48 h, read-out: Activity
HCC 2998 [3] = assay: Cytotoxicity against human HCC2998 cells assessed as cell growth at 0.01 uM after 48 hrs by sulforhodamine B assay relative to control; details: HCC 2998, 48 h, read-out: Activity
BT-549 = assay: Cytotoxicity against human BT549 cells assessed as cell growth at 0.01 uM after 48 hrs by sulforhodamine B assay relative to control; details: BT-549, 48 h, read-out: Activity
NCI-H460 = assay: Cytotoxicity against human NCI-H460 cells assessed as cell growth at 0.1 uM after 48 hrs by sulforhodamine B assay relative to control; details: NCI-H460, 48 h, read-out: Activity
SF-539 = assay: Cytotoxicity against human SF539 cells assessed as cell growth at 0.1 uM after 48 hrs by sulforhodamine B assay relative to control; details: SF-539, 48 h, read-out: Activity
SK-OV-3 = assay: Cytotoxicity against human SKOV3 cells assessed as cell growth at 0.1 uM after 48 hrs by sulforhodamine B assay relative to control; details: SK-OV-3, 48 h, read-out: Activity
SN12C = assay: Cytotoxicity against human SN12C cells assessed as cell growth at 0.1 uM after 48 hrs by sulforhodamine B assay relative to control; details: read-out: Activity
MDA-MB-468 [4] = assay: Cytotoxicity against human MDA-MB-468 cells assessed as cell growth at 0.1 uM after 48 hrs by sulforhodamine B assay relative to control; details: MDA-MB-468, 48 h, read-out: Activity
CCRF-CEM = assay: Cytotoxicity against human CCRF-CEM cells assessed as cell growth at 1 uM after 48 hrs by sulforhodamine B assay relative to control; details: read-out: Activity
NCI-H23 = assay: Cytotoxicity against human NCI-H23 cells assessed as cell growth at 1 uM after 48 hrs by sulforhodamine B assay relative to control; details: NCI-H23, 48 h, read-out: Activity
HT-29 [5] = assay: Cytotoxicity against human HT-29 cells assessed as cell growth at 1 uM after 48 hrs by sulforhodamine B assay relative to control; details: HT-29, 48 h, read-out: Activity
Malme-3M [6] = assay: Cytotoxicity against human MALME-3M cells assessed as cell growth at 1 uM after 48 hrs by sulforhodamine B assay relative to control; details: read-out: Activity
MDA-MB-435 [7] = assay: Cytotoxicity against human MDA-MB-435 cells assessed as cell growth at 1 uM after 48 hrs by sulforhodamine B assay relative to control; details: MDA-MB-435, 48 h, read-out: Activity
SK-MEL-28 = assay: Cytotoxicity against human SK-MEL-28 cells assessed as cell growth at 1 uM after 48 hrs by sulforhodamine B assay relative to control; details: SK-MEL-28, 48 h, read-out: Activity
786-0 = assay: Cytotoxicity against human 786-0 cells assessed as cell growth at 1 uM after 48 hrs by sulforhodamine B assay relative to control; details: 786-0, 48 h, read-out: Activity
UO-31 = assay: Cytotoxicity against human UO31 cells assessed as cell growth at 1 uM after 48 hrs by sulforhodamine B assay relative to control; details: UO-31, 48 h, read-out: Activity
K562 [8] = assay: Cytotoxicity against human K562 cells assessed as cell growth at 10 uM after 48 hrs by sulforhodamine B assay relative to control; details: K562, 48 h, read-out: Activity
KM12 = assay: Cytotoxicity against human KM12 cells assessed as cell growth at 10 uM after 48 hrs by sulforhodamine B assay relative to control; details: KM12, 48 h, read-out: Activity
SNB-19 = assay: Cytotoxicity against human SNB19 cells assessed as cell growth at 10 uM after 48 hrs by sulforhodamine B assay relative to control; details: SNB-19, 48 h, read-out: Activity
Malme-3M [9] = assay: Cytotoxicity against human MALME-3M cells assessed as cell growth at 10 uM after 48 hrs by sulforhodamine B assay relative to control; details: read-out: Activity
MDA-MB-435 [10] = assay: Cytotoxicity against human MDA-MB-435 cells assessed as cell growth at 10 uM after 48 hrs by sulforhodamine B assay relative to control; details: MDA-MB-435, 48 h, read-out: Activity
OVCAR-3 = assay: Cytotoxicity against human OVCAR3 cells assessed as cell growth at 10 uM after 48 hrs by sulforhodamine B assay relative to control; details: OVCAR-3, 48 h, read-out: Activity
OVCAR-8 [11] = assay: Cytotoxicity against human OVCAR8 cells assessed as cell growth at 10 uM after 48 hrs by sulforhodamine B assay relative to control; details: OVCAR-8, 48 h, read-out: Activity
RXF 393 = assay: Cytotoxicity against human RXF393 cells assessed as cell growth at 10 uM after 48 hrs by sulforhodamine B assay relative to control; details: RXF 393, 48 h, read-out: Activity
PC-3 [12] = assay: Cytotoxicity against human PC3 cells assessed as cell growth at 10 uM after 48 hrs by sulforhodamine B assay relative to control; details: PC-3, 48 h, read-out: Activity
K562 [13] = assay: Cytotoxicity against human K562 cells assessed as cell growth at 100 uM after 48 hrs by sulforhodamine B assay relative to control; details: K562, 48 h, read-out: Activity
HCC 2998 [14] = assay: Cytotoxicity against human HCC2998 cells assessed as cell growth at 100 uM after 48 hrs by sulforhodamine B assay relative to control; details: HCC 2998, 48 h, read-out: Activity
HT-29 [15] = assay: Cytotoxicity against human HT-29 cells assessed as cell growth at 100 uM after 48 hrs by sulforhodamine B assay relative to control; details: HT-29, 48 h, read-out: Activity
UACC-62 [16] = assay: Cytotoxicity against human UACC62 cells assessed as cell growth at 100 uM after 48 hrs by sulforhodamine B assay relative to control; details: UACC-62, 48 h, read-out: Activity
OVCAR-8 [17] = assay: Cytotoxicity against human OVCAR8 cells assessed as cell growth at 100 uM after 48 hrs by sulforhodamine B assay relative to control; details: OVCAR-8, 48 h, read-out: Activity
MDA-MB-468 [18] = assay: Cytotoxicity against human MDA-MB-468 cells assessed as cell growth at 100 uM after 48 hrs by sulforhodamine B assay relative to control; details: MDA-MB-468, 48 h, read-out: Activity

`COc1ccc(-c2cc(/C=C/C(=O)c3ccc(N)cc3)[nH]n2)cc1OC` showed a GI50 (NCI-H522) of 1.65 µM, an LC50 (NCI-H522) of 6.3 µM and a TGI (NCI-H522) of 3.22 µM. For the same molecule, the GI50 (NCI/ADR-RES) was 6.21 µM, the LC50 (NCI/ADR-RES) was over 100 µM and the TGI (NCI/ADR-RES) was over 100 µM. It also gave a GI50 (PC-3 [1]) of 3.71 µM, an LC50 (PC-3 [1]) of over 100 µM and a TGI (PC-3 [1]) of 19.8 µM. For the same molecule, the GI50 (Hs-578T) was 6.57 µM, the LC50 (Hs-578T) was over 100 µM and the TGI (Hs-578T) was over 100 µM. For the same molecule, the growth at 0.01 µM (UACC-62 [2]) was 99%, the growth at 0.01 µM (HCT-116) was 96% and the growth at 0.01 µM (HCC 2998 [3]) was 102%. The growth at 0.01 µM (BT-549) was 84%, the growth at 0.1 µM (NCI-H460) was 100% and the growth at 0.1 µM (SF-539) was 97%. The growth at 0.1 µM (SK-OV-3) was 102%, the growth at 0.1 µM (SN12C) was 99% and the growth at 0.1 µM (MDA-MB-468 [4]) was 91%. For the same molecule, the growth at 1 µM (CCRF-CEM) was 68%, the growth at 1 µM (NCI-H23) was 99% and the growth at 1 µM (HT-29 [5]) was 99%. The growth at 1 µM (Malme-3M [6]) was 114%, the growth at 1 µM (MDA-MB-435 [7]) was 94% and the growth at 1 µM (SK-MEL-28) was 89%. For the same molecule, the growth at 1 µM (786-0) was 87%, the growth at 1 µM (UO-31) was 86% and the growth at 10 µM (K562 [8]) was 3%. It also gave a growth at 10 µM (KM12) of -79%, a growth at 10 µM (SNB-19) of 31% and a growth at 10 µM (Malme-3M [9]) of 37%. For the same molecule, the growth at 10 µM (MDA-MB-435 [10]) was -15%, the growth at 10 µM (OVCAR-3) was -56% and the growth at 10 µM (OVCAR-8 [11]) was 2%. For the same molecule, the growth at 10 µM (RXF 393) was -39%, the growth at 10 µM (PC-3 [12]) was 20% and the growth at 100 µM (K562 [13]) was -3%. It also gave a growth at 100 µM (HCC 2998 [14]) of -91%, a growth at 100 µM (HT-29 [15]) of -59% and a growth at 100 µM (UACC-62 [16]) of -86%. It also gave a growth at 100 µM (OVCAR-8 [17]) of -86% and a growth at 100 µM (MDA-MB-468 [18]) of -73%.

In the case of `COc1cc(-c2cc(/C=C/C(=O)c3ccc(Cl)c(Cl)c3)[nH]n2)cc(OC)c1OC`, the LC50 (NCI-H522) is reported as 6.97 µM, the TGI (NCI-H522) is reported as 3.04 µM and the LC50 (NCI/ADR-RES) is reported as over 100 µM. The TGI (NCI/ADR-RES) was over 100 µM, the LC50 (PC-3 [1]) was over 100 µM and the TGI (PC-3 [1]) was over 100 µM. For the same molecule, the LC50 (Hs-578T) was over 100 µM, the TGI (Hs-578T) was over 100 µM and the growth at 0.01 µM (UACC-62 [2]) was 97%. The growth at 0.01 µM (HCT-116) was 102%, the growth at 0.01 µM (HCC 2998 [3]) was 96% and the growth at 0.01 µM (BT-549) was 89%. For the same molecule, the growth at 0.1 µM (NCI-H460) was 105%, the growth at 0.1 µM (SF-539) was 94% and the growth at 0.1 µM (SK-OV-3) was 104%. It also gave a growth at 0.1 µM (SN12C) of 96%, a growth at 0.1 µM (MDA-MB-468 [4]) of 91% and a growth at 1 µM (CCRF-CEM) of 71%. It also gave a growth at 1 µM (NCI-H23) of 95%, a growth at 1 µM (HT-29 [5]) of 96% and a growth at 1 µM (Malme-3M [6]) of 95%. It also gave a growth at 1 µM (MDA-MB-435 [7]) of 90%, a growth at 1 µM (SK-MEL-28) of 114% and a growth at 1 µM (786-0) of 91%. It also gave a growth at 1 µM (UO-31) of 81%, a growth at 10 µM (K562 [8]) of 28% and a growth at 10 µM (KM12) of 19%. The growth at 10 µM (SNB-19) was 50%, the growth at 10 µM (Malme-3M [9]) was 72% and the growth at 10 µM (MDA-MB-435 [10]) was 37%. The growth at 10 µM (OVCAR-3) was 40%, the growth at 10 µM (OVCAR-8 [11]) was 40% and the growth at 10 µM (RXF 393) was 9%. It also gave a growth at 10 µM (PC-3 [12]) of 39%, a growth at 100 µM (K562 [13]) of -7% and a growth at 100 µM (HCC 2998 [14]) of -50%. It also gave a growth at 100 µM (HT-29 [15]) of 3%, a growth at 100 µM (UACC-62 [16]) of 14% and a growth at 100 µM (OVCAR-8 [17]) of -36%. For the same molecule, the growth at 100 µM (MDA-MB-468 [18]) was -37%.
